Assay results reported in US20220025061A1, “COMBINATION THERAPIES FOR TREATING DISEASE USING AN INNATE IMMUNITY MODIFIER AND AN OX40 AGONIST” (BioXcel Therapeutics, Inc., priority 2018, published 2022).

Columns and labels:
[1] = test system: MC38 cells; test: MC38 mouse model of colon adenocarcinoma: tumor volume and survival; format: in vivo; details: MC38 tumor-bearing C57BL/6 mice
Protocol: Animals: Six to ten week-old female C57BL/6 mice were used in the studies as supplied by Beijing Vital River Laboratory Animal Technology Co., Ltd. Mice received food and water ad libitum. All animals were maintained in a controlled environment with 20-26° C. temperature, 40-70% humidity, and a light/dark cycle of 12 hours each. Up to 5 mice were kept in each cage. The study protocol and procedures involving the care and use of animals were reviewed and approved by the Institutional Animal Care and Use Committee (IACUC) to ensure compliance with the regulations of the Association for Assessment and Accreditation of Laboratory Animal Care (AAALAC).
Reagents and Antibodies: Anti-mouse PD-1 antibody (BioXcell; Lot No./Cat. No./clone: 665418F1/BP0146/RMP1-14) was supplied at a concentration of 7.83 mg/mL and maintained at 4° C. […]
Tumor volumes were measured on Day 10, Day 14, Day 17, Day 21, Day 23, Day 25, Day 28, Day 30, Day 32, Day 35, Day 37, Day 39, Day 42, Day 44, Day 46, Day 49 and Day 51 in two dimensions using a caliper, and the volume was expressed in mm^3 using the formula: V=0.5 a×b^2 where a and b are the length and width of the tumor, respectively.
Statistical Analysis: Data related to tumor volume are presented as mean and the standard error of the mean (SEM). […] Percentage tumor reduction was assessed on Day 23 by using the below formula: […]

[2] = test system: pro-inflammatory cytokines and chemokines, including IL-18; test: Cytokines and chemokines in the serum of treated animals; format: in vivo, mice; details: serum of animals treated with talabostat mesylate alone; data not shown
Protocol: Various cytokines and chemokines in the serum of animals treated with talabostat mesylate alone was also evaluated. […] IL-18 bridges the innate and adaptive immune systems through induction of IFNγ and OX40 (CD134) signaling pathway (Maxwell et al., Journal of Immunology, 2006, 177:234).

## talabostat mesylate
[1]; same dosing as Table 4, vehicle control median survival 30 days
  median survival: 35 days
[1]; talabostat mesylate 20 μg/mouse p.o. QD, anti-OX40 Ab 10 mg/kg i.p. twice weekly, anti-PD-1 Ab 5 mg/kg i.p. twice weekly, treatment from Day 11, Day 23
  % Tumor Reduction compared to vehicle control on Day 23: 8.16%
[2]
  pro-inflammatory cytokines and chemokines in serum, including IL-18: stimulated
